The results in this text go back to publication PMC6522510 (Nature Communications, 2019).

Holding throughout (assay): cells
Common to all, as to design: species or system AML cell lines (8); Secondary HTS, 10-point dose-response in triplicate, Cell Titer Glo viability, four-parameter fit EC50
(Cellular ATP, detected with luciferase, serves as a proxy for viable cell number.)

For one assay, the system named is U937. To be noted: Homo sapiens, U-937, 72 h, read-out: U937.
In another assay the test system is CMK. To be noted: Homo sapiens, CMK, 72 h, read-out: CMK.
The test system of a further assay is MV4-11. To be noted: Homo sapiens, MV4-11, 72 h, read-out: MV4-11.
Another assay deals with CMS. To be noted: 72 h, read-out: CMS.
The next assay concerns MOLM-13. To be noted: Homo sapiens, MOLM-13, 72 h, read-out: MOLM-13.
The test system of a further assay is ML-2. The settings on record: Homo sapiens, ML-2, 72 h, read-out: ML-2.
In a further assay the test system is CHRF288-11. To be noted: 72 h, read-out: CHRF288-11.
The next assay relates to M07e. To be noted: M-07e, 72 h, read-out: M07e.

pEC50: −log10 of the molar value.

As for `CC(C)=CCC/C(C)=C/CC/C(C)=C/CSc1ccccc1C(=O)O` [SALIRASIB], the pEC50 in the assay on U937, with CMK, with MV4-11, in the assay on CMS, in the assay with MOLM-13 and in the assay with ML-2 was below 5.00 in each case. The pEC50 with CHRF288-11 and with M07e was below 5.00 in each case.

As for `CCC1(c2ccc(N)cc2)CCC(=O)NC1=O` (stereo not shown) [AMINOGLUTETHIMIDE], the pEC50 with U937, in the assay with CMK, in the assay on MV4-11, in the assay with CMS, in the assay on MOLM-13 and in the assay on ML-2 was below 5.00 in each case. Moreover, the pEC50 with CHRF288-11 and with M07e was below 5.00 throughout.

For `NC(=O)c1ccc(-c2nc(-c3ccc4c(c3)OCO4)c(-c3ccccn3)[nH]2)cc1` [SB-431542], the pEC50 in the assay with U937, in the assay with CMK, in the assay on MV4-11, in the assay on CMS, with MOLM-13 and in the assay on ML-2 was below 5.00 throughout. Moreover, the pEC50 in the assay with CHRF288-11 and with M07e was below 5.00 each time.

Regarding `CCNC(=O)c1cc2c(-c3cc(OCCN4CCCC4)c(Cl)cc3Cl)nc(N)nc2s1` [SJ000796085, NVP-BEP800], the pEC50 in the assay with U937 is 6.82; with CMK it was 6.72; in the assay with MV4-11, 6.96; in the assay with CMS, 6.40; in the assay on MOLM-13, 7.06; with ML-2, 6.68. Moreover, the pEC50 was 6.37 in the assay on CHRF288-11 and below 5.00 with M07e.

Take `Clc1ccc(-c2csc(NN=C3CCCC3)n2)cc1` [SJ000784270, CPTH2]: the pEC50 in the assay with U937, in the assay on CMK, with MV4-11, with CMS, in the assay on MOLM-13 and in the assay with ML-2 was below 5.00 in each case. The pEC50 with CHRF288-11 and in the assay with M07e was below 5.00 each time.

On to `CO[C@H]1C[C@@H]2CC[C@@H](C)[C@@](O)(O2)C(=O)C(=O)N2CCCC[C@H]2C(=O)O[C@H]([C@H](C)C[C@@H]2CC[C@@H](OC(=O)C(C)(CO)CO)[C@H](OC)C2)CC(=O)[C@H](C)/C=C(\C)[C@@H](O)[C@@H](OC)C(=O)[C@H](C)C[C@H](C)/C=C/C=C/C=C/1C` [TEMSIROLIMUS], for which the pEC50 with U937, in the assay with CMK, in the assay with MV4-11, in the assay with CMS, with MOLM-13 and in the assay with ML-2 was below 5.00 in each case. Also, the pEC50 in the assay on CHRF288-11 and in the assay with M07e was below 5.00 in each case.

As to `O=C(Nc1cccc(NC(=O)c2cccc(O)c2O)c1)c1cccc(O)c1O` [SJ000784251, MST312], the pEC50 was 5.55 in the assay on U937; below 5.00 with CMK; below 5.00 in the assay on MV4-11; 5.54 in the assay with CMS; 5.82 in the assay with MOLM-13; 5.43 with ML-2. The pEC50 was 5.70 in the assay with CHRF288-11 and 5.28 with M07e.

With `CCn1c(=O)c(-c2cc[nH]n2)cc2c(C)nc(N)nc21` [SAR245409], the pEC50 with U937, in the assay with CMK, in the assay with MV4-11, in the assay on CMS, in the assay with MOLM-13 and in the assay with ML-2 was below 5.00 each time. In addition, the pEC50 with CHRF288-11 and in the assay on M07e was below 5.00 throughout.

As for `CCCS(=O)(=O)Nc1ccc(F)c(C(=O)c2c[nH]c3ncc(-c4ccc(Cl)cc4)cc23)c1F` [VEMURAFENIB], the pEC50 with U937, in the assay with CMK, in the assay on MV4-11, with CMS, with MOLM-13 and in the assay with ML-2 was below 5.00 in each case. Moreover, the pEC50 in the assay on CHRF288-11 and with M07e was below 5.00 in each case.

In the case of `CC(C)(C#N)c1ccc(N2C(=O)OCc3cnc4ccc(-c5cnc6ccccc6c5)cc4c32)cc1` [SJ000833848, ETP-46464], the pEC50 in the assay on U937 was below 5.00; with CMK, 6.14; in the assay on MV4-11 it was below 5.00; in the assay on CMS, 5.28; with MOLM-13 it was below 5.00; in the assay with ML-2 it was 5.44. For the same compound, the pEC50 with CHRF288-11 was 5.08; with M07e, below 5.00.

As to `O=C(c1ccc(Nc2nccc(-c3cc4ccccc4s3)n2)cc1)N1CCC(N2CCCC2)CC1` [SJ000806482, IKK 16], the pEC50 with U937 was 5.82; in the assay on CMK, 5.55; in the assay on MV4-11, below 5.00; in the assay with CMS it was 6.35; in the assay on MOLM-13, below 5.00; with ML-2 it was 6.38. Also, the pEC50 is 6.00 in the assay on CHRF288-11 and 5.36 in the assay on M07e.

With `NC(=O)c1cccc2ncc(-c3ccc(Cl)cc3)nc12` [SJ000784278, PARP INHIBITOR XII], the pEC50 is below 5.00 in the assay on U937; below 5.00 in the assay on CMK; below 5.00 in the assay on MV4-11; below 5.00 in the assay on CMS; 5.60 with MOLM-13; below 5.00 in the assay with ML-2. In addition, the pEC50 with CHRF288-11 and in the assay on M07e was below 5.00 throughout.

Regarding `O=c1cc(N2CCOCC2)oc2c(-c3cccc4c3sc3ccccc34)cccc12` [SJ000834137, NU 7441], the pEC50 in the assay with U937, in the assay with CMK, with MV4-11, with CMS, with MOLM-13 and in the assay with ML-2 was below 5.00 in each case. The pEC50 is below 5.00 in the assay on CHRF288-11 and 6.52 in the assay with M07e.

Consider `Cc1c(Cn2c(C)nc3c(C(=O)O)cc(N4CCOCC4)cc32)cccc1C(F)(F)F` [GSK-2636771], for which the pEC50 in the assay with U937, in the assay on CMK, in the assay on MV4-11, in the assay on CMS, in the assay with MOLM-13 and with ML-2 was below 5.00 each time. The pEC50 in the assay with CHRF288-11 and with M07e was below 5.00 throughout.

Turning to `CC[C@H](Nc1ncnc2[nH]cnc12)c1nc2cccc(F)c2c(=O)n1-c1ccccc1` [IDELALISIB], the pEC50 in the assay with U937, in the assay on CMK, with MV4-11, in the assay on CMS, in the assay on MOLM-13 and with ML-2 was below 5.00 in each case. Besides, the pEC50 with CHRF288-11 and in the assay on M07e was below 5.00 in each case.

As to `COC(=O)[C@H](CC(C)C)NC(=O)c1ccc(NCc2cnc[nH]2)cc1-c1cccc2ccccc12` [SJ000803715, GGTI-2147], the pEC50 in the assay on U937 is below 5.00; with CMK it was below 5.00; in the assay with MV4-11 it was below 5.00; in the assay with CMS it was below 5.00; with MOLM-13, 5.96; in the assay with ML-2, below 5.00. In addition, the pEC50 in the assay with CHRF288-11 and in the assay on M07e was below 5.00 in each case.

As for `CO[C@H]1/C=C\C=C(/C)C(=O)NC2=CC(=O)C(NCCN(C)C)=C(C[C@@H](C)C[C@H](OC)[C@H](O)[C@@H](C)/C=C(\C)[C@@H]1OC(N)=O)C2=O` [SJ000534765, 17-DMAG], the pEC50 was 7.60 with U937; 6.12 in the assay on CMK; 7.36 in the assay on MV4-11; 7.04 with CMS; 7.41 in the assay with MOLM-13; 7.34 in the assay on ML-2. The pEC50 in the assay with CHRF288-11 is 6.28; in the assay on M07e, 5.70.

As for `CC1=C(CC(=O)O)c2cc(F)ccc2/C1=C\c1ccc([S+](C)[O-])cc1` (stereo not shown), the pEC50 in the assay with U937, in the assay on CMK, in the assay on MV4-11, in the assay with CMS, with MOLM-13 and in the assay with ML-2 was below 5.00 throughout. The pEC50 in the assay on CHRF288-11 and in the assay with M07e was below 5.00 throughout.

`COc1cc(Nc2ncc(F)c(Nc3ccc4c(n3)NC(=O)C(C)(C)O4)n2)cc(OC)c1OC` [SJ000772392, R406]: the pEC50 was below 5.00 with U937; below 5.00 in the assay with CMK; 7.24 in the assay with MV4-11; 6.05 in the assay with CMS; 6.85 in the assay with MOLM-13; below 5.00 in the assay with ML-2. For the same compound, the pEC50 with CHRF288-11 and in the assay on M07e was below 5.00 in each case.

As for `C=CC(=O)Nc1cccc(Nc2nc(Nc3ccc(OCCOC)cc3)ncc2F)c1` [SJ000833882, CC-292 (AVL-292)], the pEC50 was 5.32 with U937; 5.40 with CMK; below 5.00 with MV4-11; below 5.00 with CMS; below 5.00 in the assay with MOLM-13; below 5.00 in the assay on ML-2. In addition, the pEC50 with CHRF288-11 is below 5.00; with M07e, 5.02.
